Measured values from patent publication EP1455790B1, “USE OF PYRIDINE-2,4-DICARBOXYLIC ACID DIAMIDES AND OF PYRIMIDINE-4,6-DICARBOXYLIC ACID DIAMIDES FOR SELECTIVE COLLAGENASE INHIBITION” (Sanofi-Aventis Deutschland GmbH, priority 2001, dated 2003).
Read-outs that look alike come from different tables or passages of the source.

Target: T1, katalytischen Domäne der humanen Kollagenase -3(MMP-13) (Homo sapiens, UniProt P45452)
T1 construct: Die Enzymlösung enthält 1,67 µg/mL der Enzymdomäne; purchased INVITEK, Berlin 30100 803
Assay: Enzymatic activity of the catalytic domain of human collagenase-3 (MMP-13), fluorogenic substrate
Type: biochemical
Procedure: Aktivierung des Proenzyms: 2 Volumenanteile Proenzym werden mit 1 Volumenanteil APMA-Lösung bei 37 °C für 1,5 Stunden inkubiert. Die APMA-Lösung wird aus einer 10 mmol/L p-Aminophenyl-Mercuric Acetate Lösung in 0,1 mmol/L NaOH durch Verdünnen mit 3 Volumenteile Tris/HCl Puffer pH7,5 (siehe unten) hergestellt. Der pH-Wert wird durch Zugabe von 1 mmol/L HCl zwischen 7;0 und 7,5 eingestellt. Nach der Aktivierung des Enzyms wird dieses mit dem Tris/HCl Puffer auf eine Konzentration von 1,67 µg/mL verdünnt.
Zur Messung der Enzymaktivität werden 10 µL Enzymlösung mit 10 µL einer 3%igen (v/v) gepufferten Dimethylsulfoxid-Lösung (Reaktion 1) für.15 Minuten inkubiert. Zur Messung der Enzyminhibitoraktivität werden 10 µL Enzymlösung mit 10 µL einer 3%igen (v/v) gepufferten Dimethylsulfoxid-Lösung, die den Enzyminhibitor enthält, inkubiert (Reaktion 2).
Die Enzymaktivität wird dargestellt als Extinktionszunahme/Minute. […] Die Pufferlösung enthält 0,05% Brij (Sigma, Deisenhofen, Deutschland) sowie 0,1 mol/L Tris/HCI, 0,1 mol/L NaCI, 0,01 mol/L CaCl2 (pH=7,5). Die Enzymlösung enthält 1,67 µg/mL der Enzymdomäne. Die Substratlösung enthält 0,75 mmol/L des fluorogenen Substrates (7-Methoxycoumarin-4-yl)acetyl-Pro-Leu-Gly-Leu-3-(2',4'-dinitrophenyl)-L-2,3-diaminopropionyl-Ala-Arg-NHz (Bachem, Heidelberg, Deutschland).

| SMILES | IC50 (comparative example, same method as Table 4, read-out: IC50-Wertes für die Inhibition der humanen Kollagenase -3 (MMP-13)) [µM] | IC50 (catalytic domain, APMA-activated pro-enzyme, Tris/HCl buffer pH 7,5, read-out: IC50 MMP13) [µM] |
| --- | --- | --- |
| CCNC(=O)c1cc(C(=O)NCC)ncn1 [Pyrimidin-4,6-dicarbonsäurediethylamid] | 90 | – |
| O=C(NCc1ccccc1)c1cc(C(=O)NCc2ccccc2)ncn1 [Beispiel 1, Pyrimidin-4,6-dicarbonsäure-dibenzylamid] | – | 0.4 |
